Source: patent US7723307B2, “Amino acid derivatives and pharmaceutical uses thereof” (Aston University, priority 2003, dated 2010)

Legend:
tissue transglutaminase = target: T1, tissue transglutaminase (UniProt P08587); assay: TGase-mediated crosslinking of fibronectin, SDS-PAGE; assay type: biochemical; settings: compound 250 μM, TGase and fibronectin 50 μg/ml each, 37° C. for 2 hr
T1 sequence (P08587 1-690): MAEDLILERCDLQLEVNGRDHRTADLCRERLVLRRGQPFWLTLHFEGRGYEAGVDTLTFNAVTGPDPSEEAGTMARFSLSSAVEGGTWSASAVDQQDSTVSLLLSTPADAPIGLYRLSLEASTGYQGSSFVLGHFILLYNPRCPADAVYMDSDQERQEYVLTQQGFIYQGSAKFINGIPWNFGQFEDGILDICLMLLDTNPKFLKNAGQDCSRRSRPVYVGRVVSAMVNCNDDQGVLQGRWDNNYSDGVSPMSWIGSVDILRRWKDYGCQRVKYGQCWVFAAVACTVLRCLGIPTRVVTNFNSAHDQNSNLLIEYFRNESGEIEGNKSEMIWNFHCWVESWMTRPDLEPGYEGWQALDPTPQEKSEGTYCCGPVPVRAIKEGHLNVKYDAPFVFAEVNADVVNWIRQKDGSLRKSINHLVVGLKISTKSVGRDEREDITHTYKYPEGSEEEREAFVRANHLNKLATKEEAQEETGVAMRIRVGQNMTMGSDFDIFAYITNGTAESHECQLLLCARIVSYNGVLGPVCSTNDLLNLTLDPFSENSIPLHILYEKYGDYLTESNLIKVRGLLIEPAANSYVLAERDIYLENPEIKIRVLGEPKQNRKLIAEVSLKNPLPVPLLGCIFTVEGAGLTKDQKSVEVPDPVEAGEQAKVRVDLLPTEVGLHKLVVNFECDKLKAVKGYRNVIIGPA
Experimental: • 1. Preactivate TGase in 3 mM DTT (where applicable) on ice for 1 hr. • 2. Crosslink TGase with fibronectin in 40 mM Tris/100 mM NaCl at 50 μg/ml final concentration each, according to Table 1 below. Include non-activated Tgase/preactivated Tgase controls in the presence and absence of the inhibitors to investigate potential homodimer formation. • 3. Incubate at 37° C. for 2 hr to allow crosslink formation to take place. • 4. Solubilise crosslink in 2× Laemmli buffer. Vortex and spin down insoluble material. • 5. Load 20 μg of total protein (Tgase+Fn) on a 7% acrylamide SDS PAGE gel. Run gel at […] until dye escapes from the bottom of the gel. • 6. Stain with coomassie brilliant blue for 1 hr at RT. • 7. De-stain in 30% methanol/10% acetic acid at RT.
SDS-PAGE data showing tTGase-mediated crosslinking of fibronectin following treatment with exemplary compounds of the invention is shown in FIG. 22.

TGase [1] = assay: 14C-putrescine incorporation into N,N'-dimethyl casein in kidney homogenates of treated SNx rats; assay type: in vivo, rat; settings: day 84
Description: (§1) Male Wistar rat of approximately 300 g weight was anaesthetised using 5% halothane and maintained at 3% for the duration of the surgical procedure. The rat was subjected to a ⅚th subtotal nephrectomy (SNx) by ligation of the left renal artery and vein followed by complete nephrectomy of the left kidney. The right kidney had both the upper and lower poles ligated followed by excision of both poles. A 9-cm cannula (0.32 mm bore) was sealed on one end and fenestrated between 3 and 12 mm from the sealed end. This was then inserted through the parenchyma (cut to cut/pole to pole) of the kidney so that the blunt end was just visible through one of the cut ends. This was then sealed in position using tissue glue on both ends of the kidney such that the fenestrated area was within the remnant kidney. The cannula was passed through the muscle wall, which was then stitched using reabsorbable sutures. The cannula was then attached to the regulator of a 2 ml osmotic minipump (Azlet osmotic minipump (2 ml4), Charles Rivers, UK) that was loaded (primed for 15 hrs at RT) with either PBS (SNx) or TGase inhibitor 281 or 283 (SNx+281 and SNx+283, respectively) at a concentration of 50 mM (delivery 1.5 μl per hour). The pump was then positioned subcutaneously on the right upper flank of the animal and the skin sutured. […]

SNx rats = assay: Renal function in subtotal nephrectomy (SNx) rats with inhibitor instilled into the kidney by osmotic minipump; assay type: in vivo, rat; settings: 90 day SNx rats, inhibitor 50 mM instilled into kidney, 5 animals per group
Description: Male Wistar rat of approximately 300 g weight was anaesthetised using 5% halothane and maintained at 3% for the duration of the surgical procedure. The rat was subjected to a ⅚th subtotal nephrectomy (SNx) by ligation of the left renal artery and vein followed by complete nephrectomy of the left kidney. The right kidney had both the upper and lower poles ligated followed by excision of both poles. A 9-cm cannula (0.32 mm bore) was sealed on one end and fenestrated between 3 and 12 mm from the sealed end. This was then inserted through the parenchyma (cut to cut/pole to pole) of the kidney so that the blunt end was just visible through one of the cut ends. This was then sealed in position using tissue glue on both ends of the kidney such that the fenestrated area was within the remnant kidney. The cannula was passed through the muscle wall, which was then stitched using reabsorbable sutures. The cannula was then attached to the regulator of a 2 ml osmotic minipump (Azlet osmotic minipump (2 ml4), Charles Rivers, UK) that was loaded (primed for 15 hrs at RT) with either PBS (SNx) or TGase inhibitor 281 or 283 (SNx+281 and SNx+283, respectively) at a concentration of 50 mM (delivery 1.5 μl per hour). The pump was then positioned subcutaneously on the right upper flank of the animal and the skin sutured. The animal was then switched onto oxygen and allowed to partially regain consciousness before being returned to the cage. The pump was changed every 28 days under halothane anaesthesia. […] The animal was then anaesthetised, the remnant kidney recovered and a terminal blood sample collected.
Proteinuria, creatinine clearance, serum clearance, urine creatinine and urine urea were carried out by standard clinical chemistry techniques (Johnson et al., 1997, J. Clin. Invest. 99:2950-2960). Creatinine and urea were measured by the standard autoanalyser technique and proteinura by the Biuret method (Johnson et al., supra). Data represent mean values ±SE, taken from 5 animals per group.

TGase [2] = assay: In situ TGase activity in kidney cryostat sections of treated SNx rats; assay type: in vivo, rat; settings: SNx rats treated for 28 days, biotin cadaverine incorporation
Description: as §1, with “sutures.” for “sutures. The cannula was then attached to the regulator of a 2 ml osmotic minipump (Azlet osmotic minipump (2 ml4), Charles Rivers, UK) that was loaded (primed for 15 hrs at RT) with either PBS (SNx) or TGase inhibitor 281 or 283 (SNx+281 and SNx+283, respectively) at a concentration of 50 mM (delivery 1.5 μl per hour). The pump was then positioned subcutaneously on the right upper flank of the animal and the skin sutured.”
Rat kidneys treated in vivo with TGase inhibitors were snap-frozen in liquid nitrogen and 14 μm sections were cut using a cryostat and allowed to air-dry. […] Slides were viewed on a Leica TCSNT confocal microscope equipped with excitation and emission filters for Cy5, and emitted fluorescence was quantified with the software supplied by the manufacturer. […]

SMILES | tTGase-mediated crosslinking of fibronectin (FIG. 22) (tissue transglutaminase) | TGase activity by 14C-putrescine incorporation in kidney homogenates (FIG. 25b) (TGase [1]) | Proteinuria, Mean (SNx rats) [mg/24 h] | Serum creatinine, Mean (SNx rats) [µM] | Serum urea, Mean (SNx rats) [mM/L] | Urine creatinine, Mean (SNx rats) [µM] | Urine urea, Mean (SNx rats) [mM/L] | In situ TGase activity in kidney cryostat sections (FIG. 25a) (TGase [2])
C[S+](C)CC(=O)CCC(NC(=O)C(CCC(N)=O)NC(=O)OCc1ccccc1)C(=O)O [Compound 285, N-Benzyloxycarbonyl-L-glutaminyl-6-dimethylsulfonium-5-oxo-L-norleucine] | inhibition |  |  |  |  |  |  | 
C[S+](C)CC(=O)CCC(NC(=O)C(Cc1ccccc1)NC(=O)OCc1ccccc1)C(=O)O [Compound 281, N-Benzyloxycarbonyl-L-phenylalanyl-6-dimethylsulfonium-5-oxo-L-norleucine] | inhibition | inhibition | 503 | 208 | 22.32 | 4000 | 372 | inhibition
CC(=O)CSc1n(C)cc[n+]1C.[Cl-] [Compound 283, 1,3-dimethyl-2-(2-oxopropylsulfanyl)-3H-1,3-diazol-1-ium-chloride, reference compound] |  | inhibition | 835 | 114 | 16.3 | 3140 | 272 | inhibition
